Tested on: HEK293 cells
Experiment: Preliminary screening as DNA vectors, GFP transfection of HEK293 cells
Assay type: cell-based
Conditions: amino lipid/DOPE liposome with 75 ng plasmid DNA (psin-EGFP-IRES-Puro); number of GFP-expressing cells divided by total nuclei (Hoechst)
Procedure, shortened: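 HEK293 cells in DMEM/10% FBS transfected with 75 ng EGFP plasmid per well complexed with amino lipid/DOPE liposomes in pH 5.6 sodium acetate. Hoechst nuclear stain added 20-24 h post-transfection, then cells cultured another 20-24 h. Confocal imaging gives GFP-positive cells as % of total nuclei.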

SMILES | Absolute DNA transfection efficiency in HEK293 cells [%]
CCCCCCCCCCCCCNc1nc(NCCN2CCN(C)CC2)nc(SCCCCCC)n1 [S6N13 D5] | 24.1
CCCCCCCCCSc1nc(NCCCN(C)C)nc(SCCCCCCCC)n1 [S8S9 D6] | 6.3
CCCCCCCCCCCCCCCSc1nc(NCCCCCCCC)nc(NCCN2CCCC2)n1 [S15N8 D3] | 12.7
CCCCCCCCCCCCCCCNc1nc(NCC2CCN(C)CC2)nc(SCCCCCCCCCCCCCC)n1 [S14N15 D10] | 0.7
CCCCCCCCCCCCN(CCCCCCCCCCCC)c1nc(NCC2CCN(C)CC2)nc(SCCCCCCCCCC)n1 [S10^2N12 D10] | 3.3
CCCCCCCCCCCCCCSc1nc(NCCN(C)C)nc(SCCCCCCC)n1 [S7S14 D1] | 7.7
CCCCCCCCCCCNc1nc(NCCCN(C)C)nc(SCCCCCCCCCCC)n1 [S11N11 D6] | 22.8
CCCCCCCCCCCCCCCCCCSc1nc(NCCCCCCCCCCC)nc(NCC2CCN(C)CC2)n1 [S18N11 D10] | 2.7
CCCCCCCCSc1nc(NCCCN(C)C)nc(SCCCCCC)n1 [S6S8 D6] | 7.4
CCCCCCCCCCCCCNc1nc(NCCCN2CCN(C)CC2)nc(SCCCCCCCCCC)n1 [S10N13 D9] | 0.4
CCCCCCCCCCCCCCCNc1nc(NCCN2CCCCC2)nc(SCCCCCCCCCCCCCCC)n1 [S15N15 D4] | 0.5
CCCCCCCCCCCCCCCNc1nc(NCCN2CCOCC2)nc(SCCCCCCCCCCCC)n1 [S12N15 D2] | 0.0
CCCCCCCCCCCCCCCCCCSc1nc(NCCCCCCCC)nc(NCCN(C)C)n1 [S18N8 D1] | 4.1
CCCCCCCCCCCCNc1nc(NCCCN2CCN(C)CC2)nc(SCCCCCCCCCCC)n1 [S11N12 D9] | 5.9
CCCCCCCCCCCCCCCCCCNc1nc(NCCN(CC)CC)nc(SCCCCCCCCCCCCCCCCCC)n1 [S18N18 D7] | 0.0
CCCCCCCCCCCCCCCCCCSc1nc(NCCN2CCCCC2)nc(SCCCCCC)n1 [S6S18 D4] | 10.4
CCCCCCCCCNc1nc(NCCN(CC)CC)nc(SCCCCCCC)n1 [S7N9 D7] | 33.2
CCCCCCCCCCCCCCCCNc1nc(NCCCN(C)C)nc(SCCCCCC)n1 [S6N16 D6] | 22.8
CCCCCCCCCCCCN(CCCCCCCCCCCC)c1nc(NCCCN2CCOCC2)nc(SCCCCCC)n1 [S6^2N12 D8] | 0.0
CCCCCCCCCNc1nc(NCCN(C)C)nc(SCCCCCC)n1 [S6N9 D1] | 0.1
CCCCCCCCNc1nc(NCCCN(C)C)nc(SCCCCCCC)n1 [S7N8 D6] | 22.3
CCCCCCCCCCCCN(CCCCCCCCCCCC)c1nc(NCCN2CCN(C)CC2)nc(SCCCCCCCCC)n1 [S9^2N12 D5] | 0.3
CCCCCCSc1nc(NCCCN(C)C)nc(SCCCCCC)n1 [S6S6 D6] | 12.5
CCCCCCCCCCCCCCCNc1nc(NCCN2CCCC2)nc(SCCCCCCC)n1 [S7N15 D3] | 31.4
CCCCCCCCCCCCCCCCNc1nc(NCCN(CC)CC)nc(SCCCCCCCCCCCC)n1 [S12N16 D7] | 3.6

SMILES | Absolute DNA transfection efficiency in HEK293 cells [%]
CCCCCCCCCCCCCCCCNc1nc(NCCN2CCCC2)nc(SCCCCCCC)n1 [S7N16 D3] | 21.2
CCCCCCCCCCCCCCCCNc1nc(NCCN2CCCC2)nc(SCCCCCCCCCCC)n1 [S11N16 D3] | 13.8
CCCCCCCCCCSc1nc(NCCCCCCC)nc(NCCN(CC)CC)n1 [S10N7 D7] | 8.1
CCCCCCCSc1nc(NCC2CCN(C)CC2)nc(SCCCCCCC)n1 [S7S7 D10] | 5.5
CCCCCCCCCCCCCCCNc1nc(NCCN(C)C)nc(SCCCCCCCCCCC)n1 [S11N15 D1] | 12.5
CCCCCCCCCCCCCCCCNc1nc(NCCN2CCCC2)nc(SCCCCCCCCCCCCCC)n1 [S14N16 D3] | 1.3
CCCCCCCCCCCCN(CCCCCCCCCCCC)c1nc(NCCCN(C)C)nc(SCCCCCCCCCC)n1 [S10^2N12 D6] | 4.3
CCCCCCCCCCCCCNc1nc(NCCCN(C)C)nc(SCCCCCCC)n1 [S7N13 D6] | 43.2
CCCCCCCCCCCCCCCCSc1nc(NCCCCCCCCCCCC)nc(NCCCN2CCOCC2)n1 [S16N12 D8] | 0.0
CCCCCCCCCCCCCCSc1nc(NCCN2CCOCC2)nc(SCCCCCCC)n1 [S7S14 D2] | 15.9
CCCCCCCCCCCCCCCCCCNc1nc(NCCN2CCCCC2)nc(SCCCCCCCC)n1 [S8N18 D4] | 0.9
CCCCCCCCCCCCNc1nc(NCCN(C)C)nc(SCCCCCCCC)n1 [S8N12 D1] | 22.1
CCCCCCCCSc1nc(NCCCCCCC)nc(NCC2CCN(C)CC2)n1 [S8N7 D10] | 1.2
CCCCCCCCCCCCSc1nc(NCCCN2CCN(C)CC2)nc(N(CCCCCCCCCCCC)CCCCCCCCCCCC)n1 [S12^2N12 D9] | 0.1
CCCCCCCNc1nc(NCCCN2CCN(C)CC2)nc(SCCCCCC)n1 [S6N7 D9] | 0.2
CCCCCCCCCCCCCNc1nc(NCCN2CCCC2)nc(SCCCCCCCCC)n1 [S9N13 D3] | 31.6
CCCCCCCCCCCSc1nc(NCCCN2CCOCC2)nc(SCCCCCC)n1 [S6S11 D8] | 4.5
CCCCCCCCCCCCCCCCNc1nc(NCCCN2CCOCC2)nc(SCCCCCCCCCC)n1 [S10N16 D8] | 3.0
CCCCCCCCCCCCSc1nc(NCCCCCCCCCCC)nc(NCCN2CCCC2)n1 [S12N11 D3] | 30.3
CCCCCCCCCCCCSc1nc(NCCCN2CCOCC2)nc(SCCCCCCCC)n1 [S8S12 D8] | 34.4
CCCCCCCCCCCCCCCCCCSc1nc(NCCCCCCCCC)nc(NCCN(C)C)n1 [S18N9 D1] | 5.3
CCCCCCCCCSc1nc(NCCN(CC)CC)nc(SCCCCCC)n1 [S6S9 D7] | 10.2
CCCCCCCCCNc1nc(NCCCN2CCOCC2)nc(SCCCCCCCCC)n1 [S9N9 D8] | 14.8
CCCCCCSc1nc(NCCN2CCCC2)nc(SCCCCCC)n1 [S6S6 D3] | 4.4
CCCCCCCCCCCCCCCCCCNc1nc(NCCN2CCCCC2)nc(SCCCCCCCCCCCCCCCC)n1 [S16N18 D4] | 0.2

SMILES | Absolute DNA transfection efficiency in HEK293 cells [%]
CCCCCCCCCCCCCCCCCCSc1nc(NCCCCCCCC)nc(NCCN2CCN(C)CC2)n1 [S18N8 D5] | 13.6
CCCCCCCCCCCCCNc1nc(NCCN(CC)CC)nc(SCCCCCCCCCCC)n1 [S11N13 D7] | 2.8
CCCCCCCCCCCNc1nc(NCC2CCN(C)CC2)nc(SCCCCCCCCCC)n1 [S10N11 D10] | 5.4
CCCCCCCCCCCCCCCNc1nc(NCCCN2CCOCC2)nc(SCCCCCCC)n1 [S7N15 D8] | 7.9
CCCCCCCCCCCCCCCSc1nc(NCCCCCCC)nc(NCCN2CCCC2)n1 [S15N7 D3] | 19.7
CCCCCCCCCCCCCCCCCCNc1nc(NCCCN2CCN(C)CC2)nc(SCCCCCCCCCCCCCCCCCC)n1 [S18N18 D9] | 0.0
CCCCCCCCCCCCN(CCCCCCCCCCCC)c1nc(NCCCN(C)C)nc(SCCCCCCCC)n1 [S8^2N12 D6] | 0.5
CCCCCCCCSc1nc(NCCN(CC)CC)nc(SCCCCCCCC)n1 [S8S8 D7] | 10.1
CCCCCCCCCNc1nc(NCCCN2CCOCC2)nc(SCCCCCC)n1 [S6N9 D8] | 0.0
CCCCCCCCCSc1nc(NCCN2CCCCC2)nc(SCCCCCCC)n1 [S7S9 D4] | 15.1
CCCCCCCCCCCCCCCNc1nc(NCC2CCN(C)CC2)nc(SCCCCCCCCCCCC)n1 [S12N15 D10] | 4.0
CCCCCCCCCCCCCCCCCCNc1nc(NCCN2CCOCC2)nc(SCCCCCC)n1 [S6N18 D2] | 2.5
CCCCCCCCNc1nc(NCC2CCN(C)CC2)nc(SCCCCCCCC)n1 [S8N8 D10] | 6.1
CCCCCCCCCSc1nc(NCCCCCCC)nc(NCCN(CC)CC)n1 [S9N7 D7] | 15.2
CCCCCCCCCCCCCNc1nc(NCCN2CCCC2)nc(SCCCCCCCCCC)n1 [S10N13 D3] | 7.7
CCCCCCCCCNc1nc(NCCN2CCCCC2)nc(SCCCCCCCCC)n1 [S9N9 D4] | 18.0
CCCCCCCCCSc1nc(NCC2CCN(C)CC2)nc(SCCCCCCCC)n1 [S8S9 D10] | 27.9
CCCCCCCCCCCNc1nc(NCCN2CCOCC2)nc(SCCCCCC)n1 [S6N11 D2] | 0.2
CCCCCCCCCCCCCCCCCCSc1nc(NCCCN(C)C)nc(SCCCCCC)n1 [S6S18 D6] | 0.0
CCCCCCCCCCCCCCCNc1nc(NCCCN2CCN(C)CC2)nc(SCCCCCCCC)n1 [S8N15 D9] | 12.4
CCCCCCCCCCCCCNc1nc(NCCCN(C)C)nc(SCCCCCCCCCCCC)n1 [S12N13 D6] | 7.0
CCCCCCCCCCCNc1nc(NCCN2CCCCC2)nc(SCCCCCCCCCCC)n1 [S11N11 D4] | 1.0
CCCCCCCCCCCCCCCCCCNc1nc(NCCN(C)C)nc(SCCCCCCCCCC)n1 [S10N18 D1] | 9.0

From patent US20230123334A1, “AMINO LIPID COMPOUND, PREPARATION METHOD THEREFOR, AND APPLICATION THEREOF” (SHENZHEN SHENXIN BIOTECHNOLOGY CO., LTD., priority 2020, published 2023)
